Results: patent US20090275653A1, “POLYMORPHIC FORMS OF LADOSTIGIL TARTRATE” (priority 2005, published 2009)
Entries after “also recorded” stand apart in the source; their conditions may differ.

Tests used:
Assay type in all cases: physicochemical
[1] = Water content (Karl Fischer) and loss on drying (TGA) of the form as obtained; conditions: for Water content: by weight
Method: (§1) TGA analysis was performed using a Mettler M3 meter. The weight of the samples was about 10 mg. The samples were scanned at a rate of 10° C./min from 25° C. to 200° C. The oven was constantly purged with nitrogen gas at a flow rate of 40 ml/min. Standard 70 μl alumina crucibles covered by lids with 1 hole were used.
(§2) The water content of ladostigil tartrate was measured by methods known in the art, such Karl Fischer analysis.

[2] = Hygroscopicity study: exposure to 0-100% relative humidity at room temperature (Karl Fischer, TGA, crystal form by XRD)
Source text: Form E was placed for 1 week under 0-100% relative humidity at room temperature. Table 1 summarizes the results:
Form F was placed for 14 days under 0-100% relative humidity at room temperature. Table 2 summarizes the results:
Form H was placed for 14 days under 0-100% relative humidity at room temperature. Table 3 summarizes the results:
Form J1 was placed for 9 days under 0-100% relative humidity at room temperature. Table 4 summarizes the results:
Table 5 summarizes the results:
(§3) X-Ray powder diffraction data were obtained by method known in the art using a SCINTAG powder X-Ray diffractometer model X'TRA equipped with a solid state detector. Copper radiation of 1.5418 Å was used. A round aluminum sample holder with round zero background quartz plate, with a cavity of 25(diameter)*0.5(depth) mm was used.
as §1, §2
Crystal form was determined after equilibration of ladostigil tartrate form A for 10 days at various relative humidities at room temperature.
Form A1 was exposed at various humidity conditions at room temperature for 13 days.
Ladostigil tartrate form A1 was exposed to various humidity conditions at room temperature for 14 days. TGA was performed, and the crystal form was analyzed.
A mixture of ladostigil tartrate form A1 and E, containing primarily form A1, was exposed at various humidity conditions at room temperature for 14 days.
Form E was placed for 7 days under 0-100% relative humidity at room temperature. Table 12 summarizes the results:
Form F was placed for 14 days under 0-100% relative humidity at room temperature. Table 14 summarizes the results:
Ladostigil tartrate Form H was exposed for 14 days under 0-100% relative humidity at room temperature. Table 15 summarizes the results:
Crystal ladostigil tartrate Form J1 was placed for 9 days under 0-100% relative humidity at room temperature.

[3] = Effect of micronization, pressing and grinding (XRD)
Method: The effects of micronization, pressing (1 minute at 100 metric tons) and grinding were determined by XRD and the following results were obtained: […]

[4] = Effect of heating on polymorph form
Method: as §3
The heated sample was analyzed by XRD. Form A1 was obtained.
Various polymorph forms and mixtures thereof were heated. The heating conditions and resulting polymorph forms are described in table 17 below: […]

[5] = Transformation of crystal form upon standing; conditions: upon standing (a few hours)
Method: The wet material was determined to be polymorph C. Some of the samples contained polymorph C with low crystallinity. The wet material was dried at 55° C. under vacuum for 17 hours, giving polymorph E. The wet polymorph with low crystallinity was transformed to polymorph E with low crystallinity upon drying under the same conditions. Both polymorph E and polymorph E with low crystallinity were transformed to form A upon standing.
The wet material was dried at 80° C. under vacuum for 17 hours and polymorph E was formed.

[6] = 100% RH, equilibration 10 days, room temperature
[7] = pressing 1 minute at 100 metric tons
[8] = 0% RH, 14 days, room temperature
[9] = 20% RH, 14 days, room temperature
[10] = 40% RH, 14 days, room temperature
[11] = 60% RH, 14 days, room temperature
[12] = 80% RH, 14 days, room temperature
[13] = 100% RH, 14 days, room temperature
[14] = 0% RH, 9 days, room temperature
[15] = 40% RH, 9 days, room temperature
[16] = 60% RH, 9 days, room temperature
[17] = 100% RH, 9 days, room temperature

## carbamic acid, ethylmethyl-, (3R)-2,3-dihydro-3-(2-propynylamino)-1H-inden-5-yl ester, (2R,3R)-2,3-dihydroxybutanedioate (2:1) [Essentially Amorphous Form]
[1]
  Weight loss / loss on drying by TGA: about 5%
  Water content: about 2%

## carbamic acid, ethylmethyl-, (3R)-2,3-dihydro-3-(2-propynylamino)-1H-inden-5-yl ester, (2R,3R)-2,3-dihydroxybutanedioate (2:1) [Form A]
[2]; 20% RH, equilibration 10 days, room temperature
  Water content: 0.3%
[2]; 40% RH, equilibration 10 days, room temperature
  Water content: 0.3%
[2]; 60% RH, equilibration 10 days, room temperature
  Water content: 0.3%
[2]; 80% RH, equilibration 10 days, room temperature
  Water content: 0.3%
[2]; [6]
  Crystal Form: stable
  Water content: 0.2%
[2]; conclusion in words
  Hygroscopicity: neither Form A nor Form A1 is hygroscopic; also recorded: non-hygroscopic
[2]; high relative humidity, in words
  Crystal form upon exposure to high relative humidity: does not change crystalline form
[3]; grinding
  Crystal form after grinding: mixture of Forms A and A1
[3]; [7]
  Crystal form after pressing: mainly to Form A1
  Crystallinity after pressing: lose some extent of crystallinity
[1]
  Weight loss / loss on drying by TGA: about 0.3%
  Water content: about 0.3%

## carbamic acid, ethylmethyl-, (3R)-2,3-dihydro-3-(2-propynylamino)-1H-inden-5-yl ester, (2R,3R)-2,3-dihydroxybutanedioate (2:1) [Form B]
[4]; 80° C., time not specified
  Resulting form after heating/drying: mixture of Form A1 and form E, primarily form A1
[1]
  Weight loss / loss on drying by TGA: about 1%

## carbamic acid, ethylmethyl-, (3R)-2,3-dihydro-3-(2-propynylamino)-1H-inden-5-yl ester, (2R,3R)-2,3-dihydroxybutanedioate (2:1) [Form C]
[4]; 50° C. under vacuum, 1 hour
  Resulting form after heating/drying: Form C was still detected
[4]; 50° C. under vacuum, 12 hours
  Resulting form after heating/drying: Form B
[4]; 55° C. under vacuum, 17 hours
  Resulting form after heating/drying: Form E
[4]; 55° C., 17 hours
  Resulting form after heating/drying: Form B
[4]; 55° C., 19 hours
  Resulting form after heating/drying: Form B
[1]
  Weight loss / loss on drying by TGA: about 40%
  Water content: about 2%

## carbamic acid, ethylmethyl-, (3R)-2,3-dihydro-3-(2-propynylamino)-1H-inden-5-yl ester, (2R,3R)-2,3-dihydroxybutanedioate (2:1) [Form E]
[2]; 0% RH, 1 week (7 days), room temperature
  Water content by Karl Fisher: 0.7%
[2]; 1 week, room temperature
  Relative humidity range in which the form is stable: 0-60 % RH
[2]; 20% RH, 1 week (7 days), room temperature
  Water content by Karl Fisher: 0.7%
[2]; 40% RH, 1 week (7 days), room temperature
  Water content by Karl Fisher: 1.5%
[2]; 60% RH, 1 week (7 days), room temperature
  Water content by Karl Fisher: 1.8%
[2]; 80% RH, 1 week (7 days), room temperature
  Water content by Karl Fisher: 0.5%
[2]; 100% RH, 1 week (7 days), room temperature
  Water content by Karl Fisher: 0.5%
[1]
  Weight loss / loss on drying by TGA: 0.7-2%
  Water content: 0.7-2%
[5]; listed as Polymorph E
  Crystal form after standing: mixture of polymorphs A and A1
[5]; listed as polymorph E
  Crystal form after standing: form A

## carbamic acid, ethylmethyl-, (3R)-2,3-dihydro-3-(2-propynylamino)-1H-inden-5-yl ester, (2R,3R)-2,3-dihydroxybutanedioate (2:1) [Form F]
[2]; [8]
  Crystal Form (resulting form): Form F
  Water content by Karl Fisher: 1.3%
[2]; [9]
  Crystal Form (resulting form): Form F
  Loss on Dry by TGA: 3.0%
  Water content by Karl Fisher: 2.2%
[2]; [10]
  Crystal Form (resulting form): Form F
  Loss on Dry by TGA: 2.9%
  Water content by Karl Fisher: 2.6%
[2]; [11]
  Crystal Form (resulting form): Form A1 + ~10% E
  Loss on Dry by TGA: 0.3%
  Water content by Karl Fisher: 0.3%
[2]; [12]
  Crystal Form (resulting form): Form A1 + ~20% A
  Loss on Dry by TGA: 0.2%
  Water content by Karl Fisher: 0.3%
[2]; [13]
  Loss on Dry by TGA: 0.3%
  Water content by Karl Fisher: 0.3%
[2]; 14 days, room temperature
  Relative humidity range in which the form is stable: 0-40 % RH
[1]
  Weight loss / loss on drying by TGA: about 3%
  Water content: 1.3-2.6%

## carbamic acid, ethylmethyl-, (3R)-2,3-dihydro-3-(2-propynylamino)-1H-inden-5-yl ester, (2R,3R)-2,3-dihydroxybutanedioate (2:1) [Form H]
[2]; [8]
  Crystal Form (resulting form): Form H
  Loss on Dry by TGA: 6.1%
  Water content by Karl Fisher: 0.42%
[2]; [9]
  Crystal Form (resulting form): Form F
  Loss on Dry by TGA: 5.2%
  Water content by Karl Fisher: 0.7%
[2]; [10]
  Crystal Form (resulting form): Form L
  Loss on Dry by TGA: 2.7%
  Water content by Karl Fisher: 1.4%
[2]; [11]
  Crystal Form (resulting form): Form A1 + ~30% E
  Loss on Dry by TGA: 0.5%
  Water content by Karl Fisher: 0.3%
[2]; [12]
  Crystal Form (resulting form): Form A1 + ~20% A
  Loss on Dry by TGA: 0.2%
  Water content by Karl Fisher: 0.2%
[2]; [13]
  Crystal Form (resulting form): Form A + ~30% A1
  Loss on Dry by TGA: 0.2%
  Water content by Karl Fisher: 0.3%
[1]
  Weight loss / loss on drying by TGA: about 6%
  Water content: about 0.6%

## carbamic acid, ethylmethyl-, (3R)-2,3-dihydro-3-(2-propynylamino)-1H-inden-5-yl ester, (2R,3R)-2,3-dihydroxybutanedioate (2:1) [Form J1]
[2]; [14]
  Crystal Form: Form J1
  Loss on Dry by TGA: 5.4%
  Water content by Karl Fisher: 0.1%
[2]; 20% RH, 9 days, room temperature
  Crystal Form: partly to Form K; also recorded: Form K + ~20% J1
[2]; [15]
  Crystal Form: Form K
  Loss on Dry by TGA: 0.8%
  Water content by Karl Fisher: 0.2%
[2]; [16]
  Crystal Form: Form K
  Loss on Dry by TGA: 0.5%
  Water content by Karl Fisher: 0.2%
[2]; 80% RH, 9 days, room temperature
  Crystal Form: Form A1 + ~20% A
[2]; [17]
  Crystal Form: Form A + ~30% A1
  Loss on Dry by TGA: 0.1%
  Water content by Karl Fisher: 0.0%
[1]
  Weight loss / loss on drying by TGA: about 10%
  Water content: about 1%

## carbamic acid, ethylmethyl-, (3R)-2,3-dihydro-3-(2-propynylamino)-1H-inden-5-yl ester, (2R,3R)-2,3-dihydroxybutanedioate (2:1) [Form K]
[2]; from the 9 day study of Form J1, room temperature
  Relative humidity range in which the form is stable: 20-60 % RH
[1]
  Weight loss / loss on drying by TGA: 0.5-0.8%
  Water content: about 0.2%

## carbamic acid, ethylmethyl-, (3R)-2,3-dihydro-3-(2-propynylamino)-1H-inden-5-yl ester, (2R,3R)-2,3-dihydroxybutanedioate (2:1) [Form L]
[4]; 60° C. in conventional oven, 2 hours
  Resulting form after heating/drying: polymorphically stable
[1]
  Weight loss / loss on drying by TGA: 2.7-13.8%
  Water content: 0.6-1.4%
